In US20140107100A1, “Benzoxazepines as Inhibitors of PI3K/mTOR and Methods of Their Use and Manufacture” (EXELIXIS, INC., priority 2010, published 2014) one finds IC50 data, which are given here for 25 compounds.

The target in this test is mTOR/GbL/Raptor (mTORC1) (Homo sapiens, UniProt P42345). Kind of test: mTOR/GbL/Raptor (mTORC1) ELISA assay, phosphorylation of 4E-BP1. In kind it is biochemical. As to conditions: 0.2 nM mTORC1, 40 uM ATP, 50 nM NHis-tagged 4E-BP1, 120 minutes; read-out: IC50 in this assay (mTORC1 ELISA). As for the experimental part:
The measurement of mTORC1 enzyme activity was performed in an ELISA assay format following the phosphorylation of 4E-BP1 protein. All experiments were performed in the 384-well format. Generally, 0.5 μL DMSO containing varying concentrations of the test Compound was mixed with 15 μL enzyme solution. Kinase reactions were initiated with the addition of 15 μL of substrates-containing solution. The assay conditions were-as follows; 0.2 nM mTORC1, 40 uM ATPand 50 nM NHis-tagged4E-BP1 in20 mM Hepes, pH 7.2, 1 mM DTT, 50 mMNaC1, 10 mM MnC12, 0.02 mg/mL BSA, 0.01% CHAPS, 50 mM β-glycerophosphate. Following an incubation of 120 minutes at anibient temperature, 20 μL of the reaction volume was transferred to a Ni-Chelate-coated 384-well plate. The binding step of the 4E-BP1 protein proceeded for 60 minutes, followed by washing 4 times each with 50 uL of Tris-buffered saline solution (TBS). Anti-phospho-4E-BPl rabbit-IgG ([…]. 1:5000) in 5% BSA-TBST (0.2% Tween-20 in TBS) was added and further incubated for 60 minutes. Incubation with a secondary HRP-tagged anti-IgG was similarly performed after washing off the primary antibody (4 washes of 50 μL). Following the final wash step with TBST, 20 μL of SuperSignal ELISA Femto (Pierce Biotechnology) was added and the luminescence measured using an En Vision plate reader.
`CNc1nc(C)c(C(C)C)c(N2CCOc3c(C)cc(-c4cnc5sc(N)nc5c4)cc3C2)n1` [Compound 53, 6-{9-methyl-4-[6-methyl-2-(methylamino)-5-(1-methylethyl)pyrimidin-4-yl]-2,3,4,5-tetrahydro-1,4-benzoxazepin-7-yl}[1,3]thiazolo[5,4-b]pyridin-2-amine]: the IC50 is not above 100 nM.
Take `Cc1cc(-c2cnc3sc(N)nc3c2)cc2c1OCCN(c1nc(CN)nc(C)c1C(C)C)C2` [Compound 134, 6-{4-[2-(aminomethyl)-6-methyl-5-(1-methylethyl)pyrimidin-4-yl]-9-methyl-2,3,4,5-tetrahydro-1,4-benzoxazepin-7-yl}[1,3]thiazolo[5,4-b]pyridin-2-amine]: the half-inhibitory concentration (IC50) was not above 100 nM.
Regarding `CCc1c(C)nc(N)nc1N1CCOc2c(C)cc(-c3cnc4sc(N)nc4c3)cc2C1` [Compound 8, 6-[4-(2-amino-5-ethyl-6-methylpyrimidin-4-yl)-9-methyl-2,3,4,5-tetrahydro-1,4-benzoxazepin-7-yl][1,3]thiazolo[5,4-b]pyridin-2-amine], the 50% inhibitory concentration (IC50) was not above 100 nM.
Then `Cc1cc(-c2cnc3sc(N)nc3c2)cc2c1OCCN(c1nc(C3CNC3)nc(C)c1C(C)C)C2` [Compound 133, 6-{4-[2-azetidin-3-yl-6-methyl-5-(1-methylethyl)pyrimidin-4-yl]-9-methyl-2,3,4,5-tetrahydro-1,4-benzoxazepin-7-yl}[1,3]thiazolo[5,4-b]pyridin-2-amine], with not above 100 nM; and `Cc1cc(-c2cnc3sc(N)nc3c2)cc2c1OCCN(c1nc(CN(C)C)ncc1C(C)C)C2` [Compound 58, 6-(4-{2-[(dimethylamino)methyl]-5-(1-methylethyl)pyrimidin-4-yl}-9-methyl-2,3,4,5-tetrahydro-1,4-benzoxazepin-7-yl)[1,3]thiazolo[5,4-b]pyridin-2-amine], with not above 100 nM.
For `Cc1cc(-c2cnc3sc(N)nc3c2)cc2c1OCCN(c1nc(N)nc(Cl)c1C(C)C)C2` [Compound 62, 6-{4-[2-amino-6-chloro-5-(1-methylethyl)pyrimidin-4-yl]-9-methyl-2,3,4,5-tetrahydro-1,4-benzoxazepin-7-yl}[1,3]thiazolo[5,4-b]pyridin-2-amine], the IC50 was not above 100 nM.
The same measure for `Cc1cc(-c2cnc(Cl)c(NS(C)(=O)=O)c2)cc2c1OCCN(c1ncc(C#N)c(N)n1)C2` [Compound 28, N-{5-[4-(4-amino-5-cyanopyrimidin-2-yl)-9-methyl-2,3,4,5-tetrahydro-1,4-benzoxazepin-7-yl]-2-chloropyridin-3-yl}methanesulfonamide]: not above 100 nM; for `Cc1cc(-c2cnc(Cl)c(NS(C)(=O)=O)c2)cc2c1OCCN(c1nc(N)ncc1C(F)(F)F)C2` [Compound 14, N-(5-{4-[2-amino-5-(trifluoromethyl)pyrimidin-4-yl]-9-methyl-2,3,4,5-tetrahydro-1,4-benzoxazepin-7-yl}-2-chloropyridin-3-yl)methanesulfonamide]: not above 100 nM.
Then `Cc1cc(-c2cnn(C)c2)cc2c1OCCN(c1nc(N)nc(C)c1C(C)C)C2` [Compound 117, 4-methyl-5-(1-methylethyl)-6-[9-methyl-7-(1-methyl-1H-pyrazol-4-yl)-2,3-dihydro-1,4-benzoxazepin-4(5H)-yl]pyrimidin-2-amine], with 100 to 500 nM.
Turning to `Cc1cc(-c2cnc3sc(N)nc3c2)cc2c1OCCN(c1ccc(C#N)cn1)C2` [Compound 36, 6-[7-(2-amino[1,3]thiazolo[5,4-b]pyridin-6-yl)-9-methyl-2,3-dihydro-1,4-benzoxazepin-4(5H)-yl]pyridine-3-carbonitrile], the IC50 lay in the range of 100 to 500 nM.
Then `CCN(Cc1nc(C)c(C(C)C)c(N2CCOc3c(C)cc(-c4cnc5nc[nH]c5c4)cc3C2)n1)CC(F)F` [Compound 171, N-ethyl-2,2-difluoro-N-({4-[7-(1H-imidazo[4,5-b]pyridin-6-yl)-9-methyl-2,3-dihydro-1,4-benzoxazepin-4(5H)-yl]-6-methyl-5-(1-methylethyl)pyrimidin-2-yl}methyl)ethanamine], with 100 to 500 nM; and `Cc1cc(-c2cnc3sc(N)nc3c2)cc2c1OCCN(c1ncncc1C(C)C)C2` [Compound 116, 6-{9-methyl-4-[5-(1-methylethyl)pyrimidin-4-yl]-2,3,4,5-tetrahydro-1,4-benzoxazepin-7-yl}[1,3]thiazolo[5,4-b]pyridin-2-amine], with not above 100 nM; and `Cc1cc(-c2cnc3sc(N)nc3c2)cc2c1OCCN(c1nccnc1C#N)C2` [Compound 34, 3-[7-(2-amino[1,3]thiazolo[5,4-b]pyridin-6-yl)-9-methyl-2,3-dihydro-1,4-benzoxazepin-4(5H)-yl]pyrazine-2-carbonitrile], with not above 100 nM.
Turning to `COC(C)c1c(C)nc(C)nc1N1CCOc2c(C)cc(-c3cnc4sc(N)nc4c3)cc2C1` (stereo not shown) [Compound 142, 6-(4-{2,6-dimethyl-5-[1-(methyloxy)ethyl]pyrimidin-4-yl}-9-methyl-2,3,4,5-tetrahydro-1,4-benzoxazepin-7-yl)[1,3]thiazolo[5,4-b]pyridin-2-amine], the half-maximal inhibitory concentration (IC50) is not above 100 nM.
The same measure for `CCc1c(C)nc(CN(C)C)nc1N1CCOc2c(C)cc(-c3cnc4sc(N)nc4c3)cc2C1` [Compound 67, 6-(4-{2-[(dimethylamino)methyl]-5-ethyl-6-methylpyrimidin-4-yl}-9-methyl-2,3,4,5-tetrahydro-1,4-benzoxazepin-7-yl)[1,3]thiazolo[5,4-b]pyridin-2-amine]: not above 100 nM; for `Cc1cc(-c2cnc3sc(N)nc3c2)cc2c1OCCN(c1nc(N)ncc1C(C)C)C2` [Compound 11, 6-{4-[2-amino-5-(1-methylethyl)pyrimidin-4-yl]-9-methyl-2,3,4,5-tetrahydro-1,4-benzoxazepin-7-yl}[1,3]thiazolo[5,4-b]pyridin-2-amine]: not above 100 nM.
Consider `Cc1cc(-c2cnc3sc(N)nc3c2)cc2c1OCCN(c1nc(N)ccc1C#N)C2` [Compound 55, 6-amino-2-[7-(2-amino[1,3]thiazolo[5,4-b]pyridin-6-yl)-9-methyl-2,3-dihydro-1,4-benzoxazepin-4(5H)-yl]pyridine-3-carbonitrile], for which the IC50 is not above 100 nM.
Then `Cc1cc(-c2cnc3sc(N)nc3c2)cc2c1OCCN(c1nc(N)c(C#N)c(C)c1C#N)C2` [Compound 57, 2-amino-6-[7-(2-amino[1,3]thiazolo[5,4-b]pyridin-6-yl)-9-methyl-2,3-dihydro-1,4-benzoxazepin-4(5H)-yl]-4-methylpyridine-3,5-dicarbonitrile], with not above 100 nM; and `Cc1cc(-c2cnc3sc(N)nc3c2)cc2c1OCCN(c1ncnc(Cl)c1C(C)C)C2` [Compound 108, 6-{4-[6-chloro-5-(1-methylethyl)pyrimidin-4-yl]-9-methyl-2,3,4,5-tetrahydro-1,4-benzoxazepin-7-yl}[1,3]thiazolo[5,4-b]pyridin-2-amine], with not above 100 nM.
For `Cc1ncc(C)c(N2CCOc3c(C)cc(-c4nnc(N)s4)cc3C2)n1` [Compound 174, 5-[4-(2,5-dimethylpyrimidin-4-yl)-9-methyl-2,3,4,5-tetrahydro-1,4-benzoxazepin-7-yl]-1,3,4-thiadiazol-2-amine], the IC50 is not above 100 nM.
For `COCCc1c(C)ncnc1N1CCOc2c(C)cc(-c3cnc4sc(N)nc4c3)cc2C1` [Compound 129, 6-(9-methyl-4-{6-methyl-5-[2-(methyloxy)ethyl]pyrimidin-4-yl}-2,3,4,5-tetrahydrio-1,4-benzoxazepin-7-yl)[1,3]thiazolo[5,4-b]pyridin-2-amine], the IC50 was not above 100 nM.
The same measure for `CC(=O)c1c(C)ncnc1N1CCOc2c(C)cc(-c3cnc4sc(N)nc4c3)cc2C1` [Compound 125, 1-{4-[7-(2-amino[1,3]thiazolo[5,4-b]pyridin-6-yl)-9-methyl-2,3-dihydro-1,4-benzoxazepin-4(5H)-yl]-6-methylpyrimidin-5-yl}ethanone]: not above 100 nM; for `Cc1cc(-c2cnc3sc(N)nc3c2)cc2c1OCCN(c1nc(N3CC(O)C3)nc(C)c1C(C)C)C2` [Compound 139, 1-{4-[7-(2-amino[1,3]thiazolo[5,4-b]pyridin-6-yl)-9-methyl-2,3-dihydro-1,4-benzoxazepin-4(5H)-yl]-6-methyl-5-(1-methylethyl)pyrimidin-2-yl}azetidin-3-ol]: not above 100 nM.
As for `Cc1cc(-c2cnc3sc(N)nc3c2)cc2c1OCCN(c1nc(S(C)(=O)=O)nc(C)c1C(C)C)C2` [Compound 86, 6-{9-methyl-4-[6-methyl-5-(1-methylethyl)-2-(methylsulfonyl)pyrimidin-4-yl]-2,3,4,5-tetrahydro-1,4-benzoxazepin-7-yl}[1,3]thiazolo[5,4-b]pyridin-2-amine], the IC50 is not above 100 nM.
Take `CCN(CC)Cc1nc(C)c(C(C)C)c(N2CCOc3c(C)cc(-c4cnc5sc(N)nc5c4)cc3C2)n1` [Compound 65, 6-(4-{2-[(diethylamino)methyl]-6-methyl-5-(1-methylethyl)pyrimidin-4-yl}-9-methyl-2,3,4,5-tetrahydro-1,4-benzoxazepin-7-yl)[1,3]thiazolo[5,4-b]pyridin-2-amine]: the half-inhibitory concentration (IC50) was not above 100 nM.
